From PubChem BioAssay (NCI) come the findings set out here.

“And” between values parts separate entries of the source, which are not always exact repeats. Equal entries are not always repeated.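 48-hour exposure; five concentrations; linearly interpolated endpoints. GI50 is the concentration that inhibits growth by half. The concentration for full growth arrest is given as TGI.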

Test systems include ACHN renal; UACC-62 melanoma; MALME-3M melanoma; KM12 colon; A549 NSCLC; HCT-15 colon; TK-10 renal; NCI-H460 lung; SNB-75 CNS; RXF 393 renal.
Holding throughout (assay): NCI-60 cell line screen, 48 h

Turning to `CCOc1ccc2[nH]c3c(C)c4cc[n+](C)cc4c(C)c3c2c1`, the GI50 is 6.04 µM and 17.5 µM in the assay with ACHN renal; 0.417 µM and 1.43 µM with MALME-3M melanoma; 6.05 µM and > 35.6 µM with HCT-15 colon; 9.4 µM and 26.6 µM in the assay with TK-10 renal; 0.18 µM and 0.0795 µM in the assay with SNB-75 CNS. Further, the TGI is more than 100 µM with ACHN renal; 5.48 µM and 12.3 µM in the assay with UACC-62 melanoma; 3.18 µM and 4.52 µM with MALME-3M melanoma; 14.4 µM and 21.6 µM in the assay with KM12 colon; 43.9 µM and > 100 µM with A549 NSCLC; more than 100 µM in the assay with HCT-15 colon. In addition, the TGI is 81.6 µM and > 100 µM in the assay on TK-10 renal; 11.5 µM and 12.6 µM with NCI-H460 lung; 0.452 µM and 0.291 µM in the assay on SNB-75 CNS; more than 100 µM in the assay on RXF 393 renal.

For the compound `COc1cc(C)c(C(=O)O[C@H]2[C@H](O[C@H]3[C@@H](O)COC(O[C@H]4C[C@H]5[C@@H]6CC=C7C[C@@H](O)CC[C@]7(C)[C@H]6CC[C@]5(C)[C@H]4[C@H](C)C(=O)CCC(C)C)[C@@H]3OC(C)=O)OC[C@@H](O)[C@@H]2O)c(C)c1` (stereo not given in full), the GI50 with ACHN renal is 0.0767 µM; with UACC-62 melanoma, less than 0.01 µM; in the assay on MALME-3M melanoma, 0.0257 µM; in the assay on KM12 colon it was 0.153 µM; in the assay on A549 NSCLC, less than 0.01 µM; with HCT-15 colon, 0.0543 µM. Also, the GI50 in the assay with TK-10 renal was 0.704 µM; in the assay with NCI-H460 lung it was less than 0.01 µM; in the assay on SNB-75 CNS it was less than 0.01 µM; with RXF 393 renal, less than 0.01 µM. Further, the TGI with ACHN renal is 18.6 µM; with UACC-62 melanoma, less than 0.01 µM; with MALME-3M melanoma, 5.89 µM; in the assay with KM12 colon, 18.4 µM; with A549 NSCLC it was 30.5 µM; in the assay with HCT-15 colon, 1.94 µM. Also, the TGI in the assay on TK-10 renal is 16.6 µM; with NCI-H460 lung it was 1.74 µM; in the assay with SNB-75 CNS it was 7.71 µM; in the assay on RXF 393 renal, less than 0.01 µM.

For `Cc1cc(C)cc(-n2c3nc(=O)n(C)c(=O)c-3nc3ccccc32)c1`, the TGI in the assay on ACHN renal was more than 100 µM; with UACC-62 melanoma it was 31.5 µM; in the assay on MALME-3M melanoma, 30.3 µM; in the assay on KM12 colon, more than 100 µM; in the assay with A549 NSCLC, 70.6 µM; in the assay with HCT-15 colon, 73 µM. For the same compound, the TGI is more than 100 µM in the assay on TK-10 renal, 94.4 µM in the assay on NCI-H460 lung, more than 100 µM in the assay with SNB-75 CNS and more than 100 µM in the assay with RXF 393 renal.

With `COc1ccc(/C=C/c2c(C(=O)/C=C/c3ccc(Cl)cc3)c(C)nc3ccccc23)cc1`, the GI50 was 1.55 µM with ACHN renal; 1.59 µM in the assay on UACC-62 melanoma; 1.69 µM in the assay on MALME-3M melanoma; 1.73 µM in the assay on KM12 colon; 2.69 µM in the assay on A549 NSCLC; 1.29 µM in the assay on HCT-15 colon. Further, the GI50 is 2.87 µM in the assay on TK-10 renal, 2.13 µM in the assay on NCI-H460 lung, 1.5 µM in the assay with SNB-75 CNS and 1.78 µM in the assay with RXF 393 renal. Moreover, the TGI in the assay with ACHN renal came out at 2.97 µM; in the assay with UACC-62 melanoma, 3.28 µM; in the assay on MALME-3M melanoma it was 3.21 µM; in the assay with KM12 colon, 3.56 µM; in the assay with A549 NSCLC, 9.6 µM; in the assay on HCT-15 colon it was 4.13 µM. The TGI is 4.95 µM with TK-10 renal, 5.61 µM with NCI-H460 lung, 3.14 µM in the assay with SNB-75 CNS and 3.34 µM in the assay on RXF 393 renal.

Turning to `CN(C)C[C@H]1CC[C@@H](CN(C)C)C1=O`, the TGI was 15.1 µM in the assay with ACHN renal; 16.6 µM with UACC-62 melanoma; 7.25 µM with MALME-3M melanoma; 27.5 µM in the assay on KM12 colon; more than 50 µM in the assay on A549 NSCLC; 11 µM with HCT-15 colon. In addition, the TGI in the assay with TK-10 renal was 15 µM; in the assay with NCI-H460 lung, 37.8 µM; in the assay with SNB-75 CNS, more than 28.7 µM; in the assay on RXF 393 renal, 16.8 µM.

Consider `Cc1cc(NS(=O)(=O)c2ccc(Nc3c4ccccc4nc4c(C(=O)Nc5ccc(S(=O)(=O)N=C(N)N)cc5)cccc34)cc2)no1`, for which the TGI in the assay with ACHN renal, in the assay with UACC-62 melanoma, with MALME-3M melanoma, in the assay on KM12 colon, in the assay on A549 NSCLC and with HCT-15 colon was more than 100 µM in each case. Further, the TGI in the assay with TK-10 renal, in the assay on NCI-H460 lung, in the assay on SNB-75 CNS and in the assay on RXF 393 renal was more than 100 µM each time.

`C[Si](C)(C)/C=C/CCC(C=O)(CCCl)c1ccccc1` (stereo not given): the TGI was 73.2 µM in the assay with ACHN renal; 55.5 µM in the assay on UACC-62 melanoma; 52.7 µM with MALME-3M melanoma; more than 100 µM with KM12 colon; 98.4 µM with A549 NSCLC; 46.1 µM with HCT-15 colon. In addition, the TGI with TK-10 renal is more than 100 µM; with NCI-H460 lung, more than 100 µM; in the assay on SNB-75 CNS it was 96.6 µM; in the assay with RXF 393 renal, 54.6 µM.

In the case of `O=c1[nH]cc(CS(=O)(=O)Cc2c[nH]c(=O)[nH]c2=O)c(=O)[nH]1`, the TGI with ACHN renal, in the assay on UACC-62 melanoma, with MALME-3M melanoma, in the assay with KM12 colon, in the assay with A549 NSCLC and in the assay on HCT-15 colon was more than 100 µM each time. The TGI with TK-10 renal, in the assay with NCI-H460 lung, with SNB-75 CNS and in the assay with RXF 393 renal was more than 100 µM throughout.

On to `Cc1ccc2nc3c(C)c(Cl)c(=O)cc-3sc2c1`, for which the TGI in the assay with ACHN renal was 87.3 µM; in the assay with UACC-62 melanoma, 17.4 µM; in the assay with MALME-3M melanoma it was more than 71.5 µM; in the assay with KM12 colon it was 74.1 µM; in the assay on A549 NSCLC, 98.2 µM; with HCT-15 colon, more than 100 µM. Moreover, the TGI was more than 100 µM in the assay with TK-10 renal, 97.4 µM in the assay with NCI-H460 lung, 56.3 µM with SNB-75 CNS and 73.7 µM in the assay with RXF 393 renal.

Turning to `O=C(/C=C/c1ccc(C(F)(F)F)cc1)c1ccc(Nc2nc(NCCO)nc(NCCO)n2)cc1`, the GI50 is 4.38 µM in the assay with ACHN renal; 2.13 µM with UACC-62 melanoma; 4.95 µM with MALME-3M melanoma; 2.02 µM with KM12 colon; 2.91 µM with A549 NSCLC; 3.07 µM in the assay with HCT-15 colon. For the same compound, the GI50 is 2.93 µM with TK-10 renal, 3.23 µM with NCI-H460 lung, 2.31 µM in the assay on SNB-75 CNS and 1.6 µM in the assay on RXF 393 renal. Moreover, the TGI came out at 15.6 µM with ACHN renal; 6.03 µM with UACC-62 melanoma; 18.8 µM in the assay with MALME-3M melanoma; 4.17 µM in the assay with KM12 colon; 10.8 µM in the assay with A549 NSCLC; 11.3 µM in the assay with HCT-15 colon. For the same compound, the TGI amounted to 14.5 µM in the assay on TK-10 renal, 10.6 µM in the assay on NCI-H460 lung, 13.6 µM with SNB-75 CNS and 3.44 µM in the assay with RXF 393 renal.
